4 compounds from publication PMC5564600 (Oncotarget, 2017) can be followed below.

Assay in all cases: biochemical
Type in all cases: binding

Assay [1] deals with T1, panel of 442 kinases (Homo sapiens, UniProt P31751).
T1 construct: purchased Ambit Biosciences (scanMAXX KINOMEscan)
The conditions noted are these: AKT2; for remaining activity at 1 µM: read-out: % of control at 1 µM.

The target in assay [2] is T2, panel of 442 kinases (Homo sapiens, UniProt P11309).
T2 construct: purchased Ambit Biosciences (scanMAXX KINOMEscan)
T2 sequence (P11309 whole entry): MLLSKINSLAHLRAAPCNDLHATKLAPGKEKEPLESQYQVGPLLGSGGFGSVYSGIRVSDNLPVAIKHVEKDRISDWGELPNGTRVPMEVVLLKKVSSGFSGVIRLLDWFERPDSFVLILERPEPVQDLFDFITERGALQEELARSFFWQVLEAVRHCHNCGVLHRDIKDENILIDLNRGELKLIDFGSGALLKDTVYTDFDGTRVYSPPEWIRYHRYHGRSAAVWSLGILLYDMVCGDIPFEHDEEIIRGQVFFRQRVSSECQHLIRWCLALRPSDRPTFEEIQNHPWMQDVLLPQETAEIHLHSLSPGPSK
The conditions noted are these: kinase PIM1; for remaining activity at 1 µM: read-out: % of control at 1 µM.

Assay [3] has as its target T3, panel of 442 kinases (Homo sapiens, UniProt P29320).
T3 construct: purchased Ambit Biosciences (scanMAXX KINOMEscan)
T3 sequence (P29320 21-983): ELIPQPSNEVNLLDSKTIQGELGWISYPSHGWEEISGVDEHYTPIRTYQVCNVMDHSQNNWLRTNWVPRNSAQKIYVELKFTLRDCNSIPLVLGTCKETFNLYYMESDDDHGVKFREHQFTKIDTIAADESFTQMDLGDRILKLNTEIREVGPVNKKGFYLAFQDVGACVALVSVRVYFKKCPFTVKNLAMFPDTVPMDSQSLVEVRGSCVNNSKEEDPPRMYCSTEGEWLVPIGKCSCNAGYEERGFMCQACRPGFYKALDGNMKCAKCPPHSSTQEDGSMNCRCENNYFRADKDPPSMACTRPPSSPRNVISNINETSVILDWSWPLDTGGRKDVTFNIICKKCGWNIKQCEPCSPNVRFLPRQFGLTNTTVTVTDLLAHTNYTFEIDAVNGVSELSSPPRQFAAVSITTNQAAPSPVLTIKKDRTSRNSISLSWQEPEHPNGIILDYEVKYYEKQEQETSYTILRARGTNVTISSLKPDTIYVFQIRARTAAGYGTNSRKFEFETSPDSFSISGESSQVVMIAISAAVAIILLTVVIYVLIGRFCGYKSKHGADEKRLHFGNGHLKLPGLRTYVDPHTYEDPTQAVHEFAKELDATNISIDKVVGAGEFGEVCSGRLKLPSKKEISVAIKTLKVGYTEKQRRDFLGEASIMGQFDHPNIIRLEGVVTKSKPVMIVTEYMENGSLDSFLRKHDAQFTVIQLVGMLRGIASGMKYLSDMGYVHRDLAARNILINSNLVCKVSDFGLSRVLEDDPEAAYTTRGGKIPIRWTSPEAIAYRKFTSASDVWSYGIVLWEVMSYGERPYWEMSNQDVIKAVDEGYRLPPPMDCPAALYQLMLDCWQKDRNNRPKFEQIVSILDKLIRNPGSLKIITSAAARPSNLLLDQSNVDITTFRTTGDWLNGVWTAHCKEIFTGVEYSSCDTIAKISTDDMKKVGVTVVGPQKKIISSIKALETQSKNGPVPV
The conditions noted are these: EPHA3; for remaining activity at 1 µM: read-out: % of control at 1 µM.

Assay [4] deals with T4, panel of 442 kinases (Homo sapiens, UniProt Q5VT25).
T4 construct: purchased Ambit Biosciences (scanMAXX KINOMEscan)
T4 sequence (Q5VT25 whole entry): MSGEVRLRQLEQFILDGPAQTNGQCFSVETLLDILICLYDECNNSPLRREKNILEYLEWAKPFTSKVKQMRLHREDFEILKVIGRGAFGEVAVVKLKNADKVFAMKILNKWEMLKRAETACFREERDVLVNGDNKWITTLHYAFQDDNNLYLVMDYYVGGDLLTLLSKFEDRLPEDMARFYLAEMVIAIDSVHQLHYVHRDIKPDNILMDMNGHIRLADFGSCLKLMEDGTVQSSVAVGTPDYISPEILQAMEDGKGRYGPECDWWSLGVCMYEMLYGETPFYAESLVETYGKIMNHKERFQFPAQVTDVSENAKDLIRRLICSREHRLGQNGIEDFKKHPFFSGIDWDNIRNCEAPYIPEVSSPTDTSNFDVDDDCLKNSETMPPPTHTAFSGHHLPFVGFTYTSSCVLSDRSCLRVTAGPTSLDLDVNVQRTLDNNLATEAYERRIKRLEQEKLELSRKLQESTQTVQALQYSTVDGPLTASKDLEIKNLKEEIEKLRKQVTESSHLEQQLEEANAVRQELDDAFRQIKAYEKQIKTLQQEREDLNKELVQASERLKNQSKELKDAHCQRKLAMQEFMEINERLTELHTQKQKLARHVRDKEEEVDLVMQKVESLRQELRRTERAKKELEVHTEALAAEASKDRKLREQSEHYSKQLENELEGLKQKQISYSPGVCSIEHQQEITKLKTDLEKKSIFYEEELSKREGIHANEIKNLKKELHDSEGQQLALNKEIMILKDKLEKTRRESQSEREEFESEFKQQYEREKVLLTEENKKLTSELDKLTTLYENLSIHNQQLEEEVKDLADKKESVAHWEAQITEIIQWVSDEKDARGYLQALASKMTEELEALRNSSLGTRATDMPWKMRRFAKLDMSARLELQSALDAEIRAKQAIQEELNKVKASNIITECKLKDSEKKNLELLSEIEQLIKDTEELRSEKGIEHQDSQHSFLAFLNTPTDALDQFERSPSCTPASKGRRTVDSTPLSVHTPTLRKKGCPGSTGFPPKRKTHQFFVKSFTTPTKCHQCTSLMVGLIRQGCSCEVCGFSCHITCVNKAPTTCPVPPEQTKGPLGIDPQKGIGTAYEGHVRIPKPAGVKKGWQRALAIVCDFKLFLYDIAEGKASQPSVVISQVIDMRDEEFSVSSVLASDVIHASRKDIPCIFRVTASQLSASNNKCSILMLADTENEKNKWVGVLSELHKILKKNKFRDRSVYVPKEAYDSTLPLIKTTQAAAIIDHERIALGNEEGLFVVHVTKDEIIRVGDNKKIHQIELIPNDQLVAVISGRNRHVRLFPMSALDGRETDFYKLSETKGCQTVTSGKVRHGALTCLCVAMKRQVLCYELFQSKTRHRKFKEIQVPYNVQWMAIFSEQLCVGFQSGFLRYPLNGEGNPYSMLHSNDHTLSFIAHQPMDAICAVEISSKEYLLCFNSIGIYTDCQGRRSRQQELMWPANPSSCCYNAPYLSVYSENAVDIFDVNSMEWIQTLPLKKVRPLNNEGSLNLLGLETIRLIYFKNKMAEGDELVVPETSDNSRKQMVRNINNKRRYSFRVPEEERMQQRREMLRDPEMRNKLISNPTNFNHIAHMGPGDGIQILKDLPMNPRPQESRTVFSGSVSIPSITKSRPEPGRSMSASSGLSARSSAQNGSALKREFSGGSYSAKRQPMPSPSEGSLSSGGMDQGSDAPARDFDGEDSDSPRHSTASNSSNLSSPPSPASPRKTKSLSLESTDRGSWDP
As to conditions: kinase MRCKA; for remaining activity at 1 µM: read-out: % of control at 1 µM.

Assay [5] concerns the target T5, panel of 442 kinases (Homo sapiens, UniProt O43353).
T5 construct: purchased Ambit Biosciences (scanMAXX KINOMEscan)
As to conditions: kinase RIPK2; for remaining activity at 1 µM: read-out: RIPK2 (% of control at 1 µM).

For assay [6], the target named is T6, panel of 442 kinases (Homo sapiens, UniProt Q04771).
T6 construct: purchased Ambit Biosciences (scanMAXX KINOMEscan)
T6 sequence (Q04771 21-509): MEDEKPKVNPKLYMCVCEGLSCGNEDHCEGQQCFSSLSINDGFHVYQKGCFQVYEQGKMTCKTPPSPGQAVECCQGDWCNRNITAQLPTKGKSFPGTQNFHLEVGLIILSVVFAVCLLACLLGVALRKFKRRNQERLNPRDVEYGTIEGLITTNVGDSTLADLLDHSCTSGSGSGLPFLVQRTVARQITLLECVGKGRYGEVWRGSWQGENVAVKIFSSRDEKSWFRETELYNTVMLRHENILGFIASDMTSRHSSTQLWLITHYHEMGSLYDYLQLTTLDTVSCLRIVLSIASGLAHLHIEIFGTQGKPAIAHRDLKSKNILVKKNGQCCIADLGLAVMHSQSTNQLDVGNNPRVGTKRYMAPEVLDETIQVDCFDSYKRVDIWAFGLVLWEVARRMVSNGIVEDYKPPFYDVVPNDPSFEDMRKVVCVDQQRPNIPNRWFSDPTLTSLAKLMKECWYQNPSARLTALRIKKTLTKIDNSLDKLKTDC
The conditions noted are these: ACVR1; for remaining activity at 1 µM: read-out: % of control at 1 µM.

Assay [7] deals with T7, panel of 442 kinases (Homo sapiens, UniProt Q16659).
T7 construct: purchased Ambit Biosciences (scanMAXX KINOMEscan)
T7 sequence (Q16659 whole entry): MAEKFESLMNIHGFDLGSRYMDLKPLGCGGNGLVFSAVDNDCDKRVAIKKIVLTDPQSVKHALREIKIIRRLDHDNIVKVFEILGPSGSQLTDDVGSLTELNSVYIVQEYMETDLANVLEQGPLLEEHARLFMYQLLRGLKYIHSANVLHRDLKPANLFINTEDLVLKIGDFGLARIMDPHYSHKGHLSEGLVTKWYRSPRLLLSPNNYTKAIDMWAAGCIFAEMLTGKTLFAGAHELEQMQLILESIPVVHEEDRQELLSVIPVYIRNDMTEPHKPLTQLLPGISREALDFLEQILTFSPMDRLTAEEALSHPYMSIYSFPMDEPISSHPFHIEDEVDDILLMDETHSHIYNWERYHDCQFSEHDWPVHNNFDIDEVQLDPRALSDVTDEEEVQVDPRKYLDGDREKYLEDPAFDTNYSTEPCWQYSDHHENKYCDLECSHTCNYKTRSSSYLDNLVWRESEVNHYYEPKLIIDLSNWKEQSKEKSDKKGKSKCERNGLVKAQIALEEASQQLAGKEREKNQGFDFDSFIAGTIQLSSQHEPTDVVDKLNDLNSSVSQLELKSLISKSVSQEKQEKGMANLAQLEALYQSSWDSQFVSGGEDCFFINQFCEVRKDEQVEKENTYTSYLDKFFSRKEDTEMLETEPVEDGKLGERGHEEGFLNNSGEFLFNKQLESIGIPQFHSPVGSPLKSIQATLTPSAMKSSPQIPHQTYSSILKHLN
The conditions noted are these: ERK3; for remaining activity at 1 µM: read-out: % of control at 1 µM.

The target of assay [8] is T8, panel of 442 kinases (Homo sapiens, UniProt P36888, K663Q).
T8 construct: purchased Ambit Biosciences (scanMAXX KINOMEscan)
T8 sequence (P36888 27-993 K663Q): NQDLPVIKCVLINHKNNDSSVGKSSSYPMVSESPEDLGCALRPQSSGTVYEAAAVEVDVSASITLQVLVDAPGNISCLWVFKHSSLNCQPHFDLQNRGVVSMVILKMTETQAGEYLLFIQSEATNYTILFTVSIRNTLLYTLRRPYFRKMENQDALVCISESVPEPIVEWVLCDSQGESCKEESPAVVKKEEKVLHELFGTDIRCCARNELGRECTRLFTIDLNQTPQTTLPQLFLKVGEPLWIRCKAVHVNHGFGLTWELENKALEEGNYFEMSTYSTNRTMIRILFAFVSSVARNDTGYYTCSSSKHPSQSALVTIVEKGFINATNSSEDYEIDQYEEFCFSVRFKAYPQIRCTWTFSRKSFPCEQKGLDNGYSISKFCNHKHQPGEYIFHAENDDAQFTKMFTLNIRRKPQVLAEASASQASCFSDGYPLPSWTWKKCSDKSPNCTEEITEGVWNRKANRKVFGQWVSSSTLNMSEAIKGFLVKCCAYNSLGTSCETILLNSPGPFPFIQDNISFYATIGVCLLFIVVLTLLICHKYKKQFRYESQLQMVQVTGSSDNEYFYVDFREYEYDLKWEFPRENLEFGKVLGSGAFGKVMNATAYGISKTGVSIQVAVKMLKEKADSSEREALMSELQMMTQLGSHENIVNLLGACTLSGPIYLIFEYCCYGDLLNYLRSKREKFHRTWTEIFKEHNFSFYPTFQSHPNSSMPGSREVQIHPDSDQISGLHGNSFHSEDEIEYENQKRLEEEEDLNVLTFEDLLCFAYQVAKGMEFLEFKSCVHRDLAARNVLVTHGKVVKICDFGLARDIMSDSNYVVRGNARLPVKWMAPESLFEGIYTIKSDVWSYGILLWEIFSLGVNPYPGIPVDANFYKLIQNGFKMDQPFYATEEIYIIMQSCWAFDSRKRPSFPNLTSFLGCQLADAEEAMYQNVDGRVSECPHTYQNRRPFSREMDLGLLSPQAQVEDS
The conditions noted are these: FLT3(K663Q); for remaining activity at 1 µM: read-out: % of control at 1 µM.

[9] abbreviates: 10 µM, read-out: % of control at 10 µM.

The structures appear in SMILES notation.

T1 sequence (P31751 whole entry): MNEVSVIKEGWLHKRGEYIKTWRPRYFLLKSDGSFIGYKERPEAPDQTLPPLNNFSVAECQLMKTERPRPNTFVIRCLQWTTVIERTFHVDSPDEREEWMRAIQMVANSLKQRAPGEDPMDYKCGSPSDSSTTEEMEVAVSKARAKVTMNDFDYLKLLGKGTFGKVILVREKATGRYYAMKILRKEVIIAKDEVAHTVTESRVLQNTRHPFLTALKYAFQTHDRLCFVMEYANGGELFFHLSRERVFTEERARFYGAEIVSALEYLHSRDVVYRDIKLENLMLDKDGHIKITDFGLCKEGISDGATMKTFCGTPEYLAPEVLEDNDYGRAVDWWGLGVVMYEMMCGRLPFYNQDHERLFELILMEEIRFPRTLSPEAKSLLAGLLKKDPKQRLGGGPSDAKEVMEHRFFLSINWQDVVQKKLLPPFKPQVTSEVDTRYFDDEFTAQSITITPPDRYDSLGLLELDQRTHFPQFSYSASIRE
T5 sequence (O43353 whole entry): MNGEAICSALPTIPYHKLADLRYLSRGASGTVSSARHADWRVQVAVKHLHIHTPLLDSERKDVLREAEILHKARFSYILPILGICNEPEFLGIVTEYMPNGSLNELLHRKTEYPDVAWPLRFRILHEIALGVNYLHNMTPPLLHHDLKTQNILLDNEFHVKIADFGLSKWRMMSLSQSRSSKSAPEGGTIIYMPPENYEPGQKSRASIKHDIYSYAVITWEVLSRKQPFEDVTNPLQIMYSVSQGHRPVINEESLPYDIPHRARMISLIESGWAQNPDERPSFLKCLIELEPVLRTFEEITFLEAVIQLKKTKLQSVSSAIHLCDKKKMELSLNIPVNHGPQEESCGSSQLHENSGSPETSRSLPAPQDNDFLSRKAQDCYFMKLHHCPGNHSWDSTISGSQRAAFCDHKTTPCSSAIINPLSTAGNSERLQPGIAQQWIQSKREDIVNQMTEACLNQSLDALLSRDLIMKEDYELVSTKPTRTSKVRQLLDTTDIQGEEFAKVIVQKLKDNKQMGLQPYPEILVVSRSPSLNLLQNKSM

Consider `Nc1cc(C(F)(F)F)c(-c2cc(N3CCOCC3)nc(N3CCOCC3)n2)cn1` [Buparlisib], for which the remaining activity at 1 µM in assay [1] is 100%; in assay [2], 87%; in assay [3] it was 96%; in assay [4], 80%; in assay [5] it was 100%; in assay [6], 100%. Besides, the remaining activity at 1 µM in assay [7] is 96%; in assay [8] it was 95%. For the same compound, the remaining activity at 10 µM in assay [1] (setting [9]) was 100%; in assay [2] (setting [9]) it was 100%; in assay [3] (setting [9]), 100%; in assay [4] (setting [9]), 100%; in assay [5] (10 µM, read-out: RIPK2 (% of control at 10 µM)), 100%; in assay [6] (setting [9]), 100%. In addition, the remaining activity at 10 µM came out at 99% in assay [7] (setting [9]) and 100% in assay [8] (setting [9]).
With `Cn1c(=O)n(-c2ccc(C(C)(C)C#N)cc2)c2c3cc(-c4cnc5ccccc5c4)ccc3ncc21` [Dactolisib, 2-methyl-2-[4-(3-methyl-2-oxo-8-quinolin-3-yl-2,3-dihydroimidazo[4,5-c]quinolin-1-yl)-phenyl] propionitrile], the remaining activity at 1 µM in assay [1] was found to be 78%; in assay [2] it was 100%; in assay [3], 63%; in assay [4], 83%; in assay [5], 37%; in assay [6], 65%. The remaining activity at 1 µM in assay [7] was found to be 97%; in assay [8], 63%.
As to `FC(F)c1nc2ccccc2n1-c1nc(N2CCOCC2)nc(N2CCOCC2)n1` [ZSTK474, 2-(difluoromethyl)-1-[4,6-di(4-morpholinyl)-1,3,5-triazin-2-yl]-1H-benzimidazole], the remaining activity at 1 µM was determined as 80% in assay [1]; 100% in assay [2]; 93% in assay [3]; 83% in assay [4]; 83% in assay [5]; 76% in assay [6]. Besides, the remaining activity at 1 µM in assay [7] and in assay [8] was 100% in each case.
Regarding `COc1ncc(-c2ccc3nccc(-c4ccnnc4)c3c2)cc1NS(=O)(=O)c1ccc(F)cc1F` [Omipalisib], the remaining activity at 1 µM was 69% in assay [1]; 100% in assay [2]; 100% in assay [3]; 97% in assay [4]; 59% in assay [5]; 100% in assay [6]. The results for the remaining activity at 1 µM in assay [7] and in assay [8] were 85% and 100%, respectively.
